In brackets after ≈: the same amount, converted by molar mass.

One data set concerns the target T1, human RNaseH1 (Homo sapiens, UniProt O60930).
T1 sequence (O60930 1-286): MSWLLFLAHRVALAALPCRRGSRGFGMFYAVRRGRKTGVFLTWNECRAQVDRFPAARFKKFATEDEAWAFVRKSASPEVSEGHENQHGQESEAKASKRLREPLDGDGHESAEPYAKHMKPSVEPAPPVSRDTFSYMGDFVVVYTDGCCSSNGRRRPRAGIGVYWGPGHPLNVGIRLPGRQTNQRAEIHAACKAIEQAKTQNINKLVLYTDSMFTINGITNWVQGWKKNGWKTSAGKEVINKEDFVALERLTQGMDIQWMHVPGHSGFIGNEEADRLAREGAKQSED
As to the kind of experiment: Biochemical inhibition of human RNaseH1 activity. The conditions noted are these: Table 2 amides; read-out: HuRH1 IC50. Here is the method: Biochemical inhibition of human RNaseH1 activity. Quantitative inhibition of the human RNaseH1 in the biochemical assays was assessed using a molecular beacon assay as described previously (Edwards et al., 2017). Recombinant human RNaseH 1 (0.3 μg) was incubated with 100 nM RNA:DNA substrate, 50 mM HEPES pH 8.0, 100 mM NaCl, 2 mM Tris(2-carboxyethyl)phosphine hydrochloride (TCEP), 0.05% Tween20, 5 units of RNaseOut, test compounds (0 to 500 μM), and 5% DMSO in a 100 μL reaction volume. The substrate was formed by annealing a complementary RNA oligonucleotide to a hairpin DNA oligonucleotide to hold the hairpin DNA oligonucleotide in an open conformation. The DNA oligonucleotide has a 5′ fluorescein reporter and a 3′ black hole quencher. When the RNA is degraded from the substrate the DNA oligonucleotide closes to form a hairpin structure, decreasing in signal intensity. Reactions were initiated with 5 mM MgCl2 and fluorescence was read using a Synergy HTS multi-mode plate reader at 37° C. Alternatively, the HBV RNaseH version used was MBP-HRHgtCΔ5, a genotype C isolate which lacks the C-terminal 35 amino acids of the HBV RNaseH domain that are predicted to be unstructured. Quantitative inhibition of the human RNaseH1 in biochemical assays was assessed using a FRET-based RNaseH assay under conditions previously reported for an RNaseH molecular beacon assay (Edwards et al., 2017). […] Cleavage of the RNA strand released the fluorescein from quenching, increasing fluorescence. Reactions were monitored for 90 min at 37° C. in a plate reader and initial reaction rates were calculated. Reactions contained escalating concentrations of the compounds.

For a further data set, the system named is HSV-1. As to the kind of experiment: Anti-HSV-1 replication assay (Vero cells, plaque titer). The note with it: for log reduction at 5 µM / log reduction at 1 µM / log reduction at 0.33 µM: Human alphaherpesvirus 1, Vero, Table 2 amides; for log reduction at 5 µM: compound at 5 μM, read-out: HSV-1 suppression 5 μM; for log reduction at 5 µM / log reduction at 1 µM: values separated by / are repeats; for log reduction at 1 µM: compound at 1 μM, read-out: HSV-1 suppression 1 μM; for log reduction at 0.33 µM: compound at 0.33 μM, read-out: HSV-1 suppression 0.33 μM. In kind it is cell-based, herpes simplex virus 1.

Data set [1] concerns C. neoformans var. grubii, KN99. As to the kind of experiment: C. neoformans growth inhibition assay (limiting dilution). The class given is cell-based, Cryptococcus neoformans. The note with it: Cryptococcus neoformans, 48 h, Table 2 amides; 48 h, 35° C., tested 0.19 to 50 μM; read-out: C. neoformans MIC80. Here is the method: Cell types used for C. neoformans studies. All inhibition assays were performed with C. neoformans var. grubii, KN99 (serotype A, MAT). Two clinical strains of C. neoformans var. grubii, serotype A, were provided by Tamara Doering and Andre Spec. […] Cells were diluted to OD650 0.001 in YNB-02 02 (0.67% yeast nitrogen base, 0.2% dextrose, pH 7.0 with 50 mM MOPs)+1% DMSO prior to addition to the plates for the inhibition assays.
C. neoformans growth inhibition assays. Compounds were tested in a limiting dilution assay with a starting optical density (at 650 nm) of 0.001 in YNB-02 plus 1% DMSO. Cells plus compound were incubated in 96-well clear round bottom plates covered with a Breath-easy® membrane without shaking for 48 hours at 35° C. Before measuring cell density, plates were shaken on a microtiter plate shaker at 900 rpm for 3 minutes to resuspend cells and optical density was measured at 650 nm. […] Each assay was done in triplicate and all values are the average of two or more independent assays. The data are presented as the average cell density as a percent of DMSO-only treated cells. MICs are reported as the minimal concentration needed to inhibit 80% of C. neoformans growth relative to vehicle-treated controls.

Another data set can be described thus: in vitro. The note with it: human, HepDES19 cells.

Procedure for in vitro: Cells used for toxicity and HBV studies. […] Cells were maintained in Dulbecco's modified Eagle's medium (DMEM)/F12 media supplemented with 10% fetal bovine serum (FBS) and 1% penicillin/streptomycin (P/S) with 1 μg/mL tetracycline. Synchronized expression of HBV pgRNA was induced by removing tetracycline from the culture medium.
Cytotoxicity Assays. Qualitative assessments of cytotoxicity were done visually by inspecting the cells in the primary screening assays. […] The next day the compounds were added at 0.78 to 100 μM in a final concentration of 1% (v/v) DMSO, and the cells were incubated for 24 hours under conditions identical to those employed for the viral replication inhibition assays. Mitochondrial toxicity was measured by incubating the cells with 0.25 mg/mL thiazolyl blue tetrazolium bromide (MTT, SigmaAldrich Chemical Co.), the cultures were incubated for 60 mM, metabolites were solubilized in acidic isopropanol, and absorbance was read at 570 nm. CC50 values were calculated by non-linear curve fitting using GraphPad Prism using the three-parameter variable-response log(inhibitor)-versus-response algorithm with the bottom value set to zero.

As usually defined, the IC50 is the concentration needed to halve the response being measured. One may read the MIC80 as the lowest concentration that inhibits either 80% of growth or 80% of the strains tested, depending on the study. Usually CC50 stands for the concentration that lowers cell viability or growth by half. A low value points to harm at low concentration. On to `Cc1cc(O)c(=O)c(O)cc1C(=O)NCc1ccccc1` [compound 388], for which the IC50 on human RNaseH1 was determined as 166 ± 104 µM. Also, the log reduction at 5 µM in the data set with HSV-1 amounted to 0.05. In addition, in data set [1], the MIC80 was found to be 9 µM (≈ 2.57 µg/mL). Besides, in “in vitro” (CC50 (μM), Table 2 amides, MTT), the CC50 at 24 h is 19.8 ± 3 µM.
In the case of `Cc1cc(O)c(=O)c(O)cc1C(=O)Nc1ccccc1` [compound 389], the IC50 at human RNaseH1 is 78.4 ± 47.2 µM. In addition, in the data set with HSV-1, the log reduction at 5 µM is 0.43. Further, the MIC80 in data set [1] stood at 5.3 µM (≈ 1.44 µg/mL). In addition, the CC50 at 24 h in “in vitro” (CC50 (μM), Table 2 amides, MTT) is 21.2 ± 9.5 µM; in the data set “in vitro” (CC50), more than 20 µM.
For the compound `Cc1cc(O)c(=O)c(O)cc1C(=O)NCc1ccc(-c2ccccc2)cc1` [compound 539], the IC50 at human RNaseH1 was found to be 50 ± 9 µM. Besides, the “Reduction of HSV-1 titers / suppression of HSV-1 replication at 5 μM” value in the data set with HSV-1 (5 μM, plaque forming units (PFU)/ml) was “more than 5 log10”. Further, in the data set on HSV-1, the log reduction at 1 µM is 0.52 and the log reduction at 5 µM was 5.3. In addition, the MIC80 in data set [1] was 4.5 µM (≈ 1.63 µg/mL). Further, the CC50 at 24 h in the data set “in vitro” (CC50 (μM), Table 2 amides, MTT) worked out at 3.6 ± 1.8 µM. Moreover, in the data set “in vitro” (CC50), the CC50 at 24 h is 1.8 µM.
On to `Cc1cc(O)c(=O)c(O)cc1C(=O)NCCCc1ccccc1` [compound 708], for which, on human RNaseH1, the IC50 turned out to be 267 ± 11.7 µM. In the data set with HSV-1, the log reduction at 5 µM was determined as 0.04. Also, in data set [1], the MIC80 stood at 18 µM (≈ 5.64 µg/mL). The CC50 at 24 h in “in vitro” (CC50 (μM), Table 2 amides, MTT) came out at 22.6 ± 12.8 µM.
Take `Cc1cc(O)c(=O)c(O)cc1C(=O)N1CCS(=O)(=O)C1` [compound 709]: the IC50 on human RNaseH1 came to 84.8 ± 6.7 µM. Besides, the log reduction at 5 µM in the data set on HSV-1 was -0.27. Moreover, in data set [1], the MIC80 was 50 µM (≈ 15 µg/mL). The compound also came in with a CC50 at 24 h in the data set “in vitro” (CC50 (μM), Table 2 amides, MTT) of 19.5 ± 6.7 µM.
Regarding `COC(=O)[C@@H](NC(=O)c1cc(O)c(=O)c(O)cc1C)C(C)C` [compound 793], the IC50 on human RNaseH1 is 178 ± 46.6 µM. In addition, in data set [1], the MIC80 is 18 µM (≈ 5.57 µg/mL). The compound also returned a CC50 at 24 h in the data set “in vitro” (CC50 (μM), Table 2 amides, MTT) of 18.3 ± 9.8 µM.
As for `COC(=O)[C@H](CC(C)C)NC(=O)c1cc(O)c(=O)c(O)cc1C` [compound 794], the IC50 at human RNaseH1 amounted to 48.1 ± 15.4 µM. Further, the MIC80 in data set [1] worked out at 9 µM (≈ 2.91 µg/mL). In “in vitro” (CC50 (μM), Table 2 amides, MTT), this compound yielded a CC50 at 24 h of 14.7 ± 9.6 µM.
On the same counts, the results for `COC(=O)[C@H](Cc1ccccc1)NC(=O)c1cc(O)c(=O)c(O)cc1C` [compound 795] are 43.5 ± 14.8 µM, 9 µM (≈ 3.22 µg/mL) and 12.7 ± 5.5 µM.
As for `COC(=O)[C@H](Cc1c[nH]c2ccccc12)NC(=O)c1cc(O)c(=O)c(O)cc1C` [compound 797], the IC50 at human RNaseH1 was found to be 44 ± 27.1 µM. Moreover, the MIC80 in data set [1] came out at 9 µM (≈ 3.57 µg/mL). Also, it took 13.9 ± 13.3 µM to reach half-maximal cytotoxicity in “in vitro” (CC50 (μM), Table 2 amides, MTT) (CC50 at 24 h).
For `Cc1cc(O)c(=O)c(O)cc1C(=O)Nc1ccc(Cc2ccccc2)cc1` [compound 798], at human RNaseH1, the IC50 was determined as 467 µM. Moreover, in the data set with HSV-1, the log reduction at 0.33 µM is -0.0103, the log reduction at 1 µM came out at 2.32 and the log reduction at 5 µM is 4.39. In addition, the MIC80 in data set [1] worked out at 1.2 µM (≈ 0.434 µg/mL). For the same compound, the CC50 at 24 h in the data set “in vitro” (CC50 (μM), Table 2 amides, MTT) is 3.3 ± 1.8 µM. The compound further yielded a CC50 at 24 h in the data set “in vitro” (CC50) of 3.3 µM.
For the compound `Cc1cc(O)c(=O)c(O)cc1C(=O)Nc1cccc(Cc2ccccc2)c1` [compound 799], at human RNaseH1, the IC50 is 713 ± 496 µM. In the data set on HSV-1, the log reduction at 0.33 µM was 0.0848, the log reduction at 1 µM came out at 0.411 and the log reduction at 5 µM was 3.88. Also, in data set [1], the MIC80 was 2 µM (≈ 0.723 µg/mL). This compound returned a CC50 at 24 h in the data set “in vitro” (CC50 (μM), Table 2 amides, MTT) of 5.3 ± 3.1 µM.
In the case of `Cc1cc(O)c(=O)c(O)cc1C(=O)NCc1cccs1` [compound 801], on human RNaseH1, the IC50 was found to be 833 ± 289 µM. In addition, in data set [1], the MIC80 was determined as 50 µM (≈ 14.6 µg/mL). Further, the CC50 at 24 h in the data set “in vitro” (CC50 (μM), Table 2 amides, MTT) was 61.1 ± 22.8 µM.
On the same counts, the results for `CCS(=O)(=O)N1CCN(C(=O)c2cc(O)c(=O)c(O)cc2C)CC1` [compound 802] are 76.5 ± 46.9 µM, 50 µM (≈ 17.8 µg/mL) and 27.1 ± 31.2 µM.
`Cc1cc(O)c(=O)c(O)cc1C(=O)N1CCN(c2oc(-c3ccco3)nc2C#N)CC1` [compound 803]: on human RNaseH1, the IC50 is 36.3 ± 4 µM. In addition, the MIC80 in data set [1] was 32 µM (≈ 13.5 µg/mL). Besides, the CC50 at 24 h in the data set “in vitro” (CC50 (μM), Table 2 amides, MTT) worked out at 23.7 ± 22.9 µM.
